Source: patent US5998433A, “Condensed compounds, their production and use” (Takeda Chemical Industries, Ltd., priority 1994, dated 1999)
pIC50: −log10 of the molar value. Counter-ions that a name gives are not always drawn.

What was measured:
Candida utilis IFO 0619 = test: Antifungal activity (agar plate dilution method), organism G; format: cell-based; conditions: Williopsis jadinii, IFO0619, 35° C., 20 hours, pH 7.0
Procedure: (§1) Determination of Antifungal Activity (Agar Plate Dilution Method)
(§2) RPMI 1640 (Gibco BRL) was dissolved in 0.3 M MOPS buffer, pH 7.0, to obtain a 2-fold dilution; this solution was filtered to remove germ cells (0.45 μm). Separately, 1.4% agar (Wako Pure Chemical Industries) was thermally sterilized (121° C., 15 minutes). This agar was mixed with an equal amount of the above 2-fold diluted RPMI 1640 (0.15 M MOPS, pH 7.0). To 9.9 ml of this RPMI 1640 (0.15 M MOPS, pH 7.0)-0.7% agar medium, 0.1 ml of a 100-fold diluted DMSO solution of the test drug was added; this mixture was prepared as an agar plate in a petri dish 9 cm in diameter. The drug (dissolved in DMSO to 100-fold dilution) was used in a series of 2-fold dilutions of a starting concentration of 64 μg/ml in the agar medium. For drug-free control, an agar medium containing 0.1 ml of DMSO or […] of sterile water was prepared. An inoculum of frozen cells was diluted with physiological saline and spot inoculated onto the agar medium (0.005 ml; 700-15,000 cfu) using a microplanter (Sakuma Seisakusho), followed by cultivation at 35° C. for 20 hours. Antifungal activity was assessed macroscopically; the minimum concentration for complete growth inhibition was expressed as MIC (minimum growth inhibitory concentration).

[1] = test system: Aspergillus niger IFO 4414; test: Antifungal activity (agar plate dilution method), organism I; format: cell-based; conditions: IFO4414, 35° C., 20 hours, pH 7.0
Procedure: as §1, §2

[2] = test system: Candida glabrata IFO 0622; test: Antifungal activity (agar plate dilution method), organism D; format: cell-based; conditions: Nakaseomyces glabratus, IFO0622, 35° C., 20 hours, pH 7.0
Procedure: as §1, §2

[3] = test system: Cholesterogenesis in Rat Liver; test: Inhibition of cholesterogenesis in rat liver ([14C] acetic acid incorporation); format: in vivo, male Sprague-Dawley rats; conditions: by stomach tube, lower values indicate higher inhibitory activity
Procedure: Inhibition of Cholesterogenesis in Rat Liver
An aqueous solution of the test drug was administered, by a stomach tube, to male Sprague-Dawley rats at 5 weeks of age; 1 hour later, [^14 C] acetic acid was intravenously administered at a dose of 10 μCi per animal. One hour later, the animals were bled, livers were excised and a portion of liver was treated with a chloroform:methanol mixture to extract lipids. After the lipid fraction was saponified, sterol was extracted with petroleum ether, precipitated using digitonin and the radioactivity in the precipitate fraction was determined using a scintillation counter. The control group orally received 0.5% methyl cellulose solution alone.
The results are shown in Table 3 (lower percent control values indicate higher cholesterol synthesis inhibitory activity).

[4] = target: T1, 2,3-oxidosqualene cyclase (Rattus norvegicus, UniProt P48450); test: Inhibition of 2,3-oxidosqualene cyclase activity (crude rat liver enzyme, lanosterol production, GC/Mass); format: biochemical; conditions: 37° C., 20 minutes, pH 7.5; read-out: Oxidosqualene Cyclase Inhibitory Activity IC50
T1 construct: The supernatant was thus obtained as a crude enzyme solution; from tissue; host or cells: liver of male SD rat, microsome fraction solubilised with n-dodecyl beta-D-maltoside
T1 sequence (P48450 1-733): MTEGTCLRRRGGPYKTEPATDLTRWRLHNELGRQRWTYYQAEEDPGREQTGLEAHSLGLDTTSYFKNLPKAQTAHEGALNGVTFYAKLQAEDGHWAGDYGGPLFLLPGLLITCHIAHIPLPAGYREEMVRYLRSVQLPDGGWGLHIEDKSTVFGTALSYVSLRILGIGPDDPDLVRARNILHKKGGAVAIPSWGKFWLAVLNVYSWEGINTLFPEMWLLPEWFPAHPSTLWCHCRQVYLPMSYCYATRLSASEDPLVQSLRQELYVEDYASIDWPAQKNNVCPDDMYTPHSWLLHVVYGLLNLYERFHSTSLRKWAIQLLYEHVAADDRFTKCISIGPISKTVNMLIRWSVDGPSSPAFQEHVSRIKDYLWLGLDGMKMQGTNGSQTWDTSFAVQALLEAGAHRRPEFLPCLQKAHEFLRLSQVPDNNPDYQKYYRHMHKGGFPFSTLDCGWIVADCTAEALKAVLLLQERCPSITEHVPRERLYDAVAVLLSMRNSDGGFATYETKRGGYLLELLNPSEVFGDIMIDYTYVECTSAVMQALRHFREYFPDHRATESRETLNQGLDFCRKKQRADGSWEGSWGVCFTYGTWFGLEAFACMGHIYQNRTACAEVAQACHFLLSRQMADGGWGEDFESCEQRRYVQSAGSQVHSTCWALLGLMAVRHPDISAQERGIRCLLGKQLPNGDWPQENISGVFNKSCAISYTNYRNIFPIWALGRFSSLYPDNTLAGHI
Procedure: Inhibition of 2,3-oxidosqualene Cyclase Activity
1) Preparation of Crude Rat Enzyme
After a male SD rat (6 weeks of age) was sacrificed by bleeding, the liver was excised. About 50 g of the liver was washed with ice-cold physiological saline and homogenized in 75 ml of ice-cold buffer [100 mM potassium phosphate buffer (pH 7.4), 15 mM nicotinamide, 2 mM MgCl2 ] and centrifuged at 10,000×g for 20 minutes (4° C.). The resulting supernatant was further centrifuged at […] for 90 minutes (4° C.) and the resulting sediment was suspended in ice-cold 100 mM potassium phosphate buffer (pH 7.4), and again centrifuged at 105,000×g for 90 minutes (4° C.). […]
To 200 μl of a reaction mixture containing […] 2,3-oxidosqualene, 50 mM Tris-HCl (pH 7.5), 0.5 mM EDTA, 0.5 mM dithiothreitol, 0.1% Tween 80, 0.25% n-dodecyl β-D-maltoside and the test drug, the crude enzyme (protein content 40 μg) was added and incubated at 37° C. for 20 minutes. […] The resulting lanosterol was quantitated with the cholestane as internal standard (gas chromatograph: Yokogawa-Hewlett-Packard HP-5890J; column: Yokogawa-Hewlett-Packard ULTRA-1, 0.32 mm dia., 0.52μ, 10 m; mass analyzer: JEOL JMS-DX303/DA5000). […]

[5] = test system: Aspergillus fumigatus IFO 6344; test: Antifungal activity (agar plate dilution method), organism H; format: cell-based; conditions: IFO6344, 35° C., 20 hours, pH 7.0
Procedure: as §1, §2

[6] = test system: Candida tropicalis IFO 0587; test: Antifungal activity (agar plate dilution method), organism B; format: cell-based; conditions: IFO0587, 35° C., 20 hours, pH 7.0
Procedure: as §1, §2

Candida krusei IFO 1162 = test: Antifungal activity (agar plate dilution method), organism F; format: cell-based; conditions: Pichia kudriavzevii, IFO1162, 35° C., 20 hours, pH 7.0
Procedure: as §1, §2

Candida krusei IFO 0584 = test: Antifungal activity (agar plate dilution method), organism E; format: cell-based; conditions: Pichia kudriavzevii, IFO0584, 35° C., 20 hours, pH 7.0
Procedure: as §1, §2

[7] = test system: Candida albicans IFO 0583; test: Antifungal activity (agar plate dilution method), organism A; format: cell-based; conditions: IFO0583, 35° C., 20 hours, pH 7.0
Procedure: as §1, §2

[8] = test system: Candida tropicalis IFO 10241; test: Antifungal activity (agar plate dilution method), organism C; format: cell-based; conditions: IFO10241, 35° C., 20 hours, pH 7.0
Procedure: as §1, §2

LDL receptor = test: Low-density lipoprotein (LDL) receptor-increasing activity in HepG2 cells; format: cell-based, human; conditions: 20 hours, mean ± SD (n = 3)
Procedure: Determination of Low-density Lipoprotein (LDL) Receptor-increasing Activity
Human hepatoma cell line HepG2 was seeded to 96-multiwell plates (10^4 cells/well) and cultured for 5 days in Dulbecco's minimal essential medium (DMEM) medium supplemented with 10% inactivated fetal bovine serum, followed by 20 hours of pretreatment in 100 μl of DMEM medium containing 10% lipoprotein-deficient fetal bovine serum and the test compound. After being washed with Dulbecco's phosphate-buffered saline (PBS), the cells were fixed in 4% formalin at room temperature for 1 hour. Three hundreds μl of PBS containing 3% bovine serum albumin was added; the mixture was kept standing at 5° C. overnight, after which the PBS was replaced with 50 μl of PBS containing both 5 μg/ml anti-LDL receptor monoclonal antibody (Oncogene Science) and 0.5% bovine serum albumin, followed by incubation at room temperature for 2 hours. After the cells were washed with PBS containing both 0.05% Triton X-100 and 0.5% bovine serum albumin (Triton-containing PBS), 50 μl of 400-fold diluted peroxidase-labeled anti-mouse antibody (produced by BIO-RAD) was added, followed by incubation at room temperature for 1 hour. After the cells were washed with Triton-containing PBS, peroxidase activity was determined using a Peroxidase Assay Kit A (Sumitomo Bakelite Co., Ltd.). LDL receptor-inducing activity was calculated by comparing the peroxidase activity with control activity; data were analyzed for significant difference by Student's t-test. Blank determination was performed in the absence of the anti-LDL receptor monoclonal antibody.

| SMILES | MIC (Candida utilis IFO 0619) [µg/mL] | MIC [1] [µg/mL] | MIC [2] [µg/mL] | Cholesterol synthesis in rat liver, % of control ([3]; 30 mg/kg) [% Control] | pIC50 [4] | MIC [5] [µg/mL] | MIC [6] [µg/mL] | MIC (Candida krusei IFO 1162) [µg/mL] | MIC (Candida krusei IFO 0584) [µg/mL] | MIC [7] [µg/mL] | MIC [8] [µg/mL] | Cholesterol synthesis in rat liver, % of control ([3]; 0.3 mg/kg) [% Control] | Cholesterol synthesis in rat liver, % of control ([3]; 1.0 mg/kg) [% Control] | LDL Receptor Expression (% of Control) (LDL receptor; 0.2 μM) | LDL Receptor Expression (% of Control) (LDL receptor; 2 μM, *p < 0.05) | LDL Receptor Expression (% of Control) (LDL receptor; 20 μM, *p < 0.05) |
| --- | --- | --- | --- | --- | --- | --- | --- | --- | --- | --- | --- | --- | --- | --- | --- | --- |
| CN(C)Cc1cc2c(o1)CN(C(=O)CCCCCc1ccccc1)CC2 [Example 5, 1-(2-dimethylaminomethyl-5,7-dihydro-4H-furo[2,3-c]pyridin-6-yl)-6-phenylhexan-1-one hydrochloride] | 2 | 8 | 32 | 48.9 | 7.82 | 8 | 16 | 8 | 8 | 16 | 64 |  |  |  |  |  |
| CN(C)Cc1cc2c(o1)CN(C(=O)c1ccc(C(=O)c3ccccc3)cc1)CC2 [Example 11, N,N-dimethyl-[6-(4-benzoylbenzoyl)-4,5,6,7-tetrahydrofuro[2,3-c]pyridin-2-ylmethyl]amine hydrochloride] |  |  |  |  | 7.08 |  |  |  |  |  |  | 52.6 | 23.3 | 113.3 ± 10.6 % of Control | 143.1 ± 19.7 % of Control | 148.9 ± 20.5 % of Control |
